Measurements as given in ChEMBL document CHEMBL1157332, “Neuroprotective bibenzyl glycosides of Stemona tuberosa roots” (2006).

What was measured:
SH-SY5Y [1] = experiment: Neuroprotective effect against 6-OHDA-induced neurotoxicity in human SH-SY5Y cells at 0.1 uM treated 1 hr before 6-OHDA injury after 24 hrs by MTT assay relative to control; format: functional
SH-SY5Y [2] = experiment: Neuroprotective effect against 6-OHDA-induced neurotoxicity in human SH-SY5Y cells at 1 uM treated 1 hr before 6-OHDA injury after 24 hrs by MTT assay relative to control; format: functional

`COc1cc(OC)cc(C(O[C@@H]2O[C@H](CO)[C@@H](O)[C@H](O)[C@H]2O)C(O)c2ccccc2)c1` (stereo partly drawn) showed an Activity (SH-SY5Y [1]) of 29.5% and an Activity (SH-SY5Y [2]) of 97.3%.
In the case of `COc1ccc(CCc2cc(O)c(C)c(O[C@@H]3O[C@H](CO)[C@@H](O)[C@H](O)[C@H]3O)c2)cc1`, the Activity (SH-SY5Y [1]) is reported as 31% and the Activity (SH-SY5Y [2]) is reported as 65.6%.
Molecule `Cc1c(O)cc(CCc2ccccc2)cc1O[C@@H]1O[C@H](CO)[C@@H](O)[C@H](O)[C@H]1O` has an Activity (SH-SY5Y [1]) of 50.9% and an Activity (SH-SY5Y [2]) of 72.4%.
`O=C(O[C@@H]1Cc2c(O)cc(O)cc2O[C@@H]1c1cc(O)c(O)c(O)c1)c1cc(O)c(O)c(O)c1` [EPIGALOCATECHIN GALLATE] showed an Activity (SH-SY5Y [1]) of 20.1% and an Activity (SH-SY5Y [2]) of 42.2%.
